# Patent publication US20160101148A1, “TREATMENT AND PREVENTION OF BACTERIAL SKIN INFECTIONS USING ORITAVANCIN” (priority 2013, published 2016)
# Legend:
# [1] = system: S. aureus strains (14 mecC MRSA, 2 mecA MRSA, ATCC 29213 MSSA); test: In vitro time-kill assays at free peak and free trough concentrations; assay type: cell-based, Staphylococcus aureus
# Description: Viable cell count was determined by serial dilution plating, including the use of 25 g/L charcoal suspension to limit antibiotic carryover. […] Time-kill assays were repeated at least twice independently; results presented are from a representative experiment.
# Doubling dilution concentrations of comparator agents were likewise chosen to approximate their fCmax and fCmin levels in plasma when administered at approved dosages for complicated skin and skin structure infections, using pharmacokinetic data and protein binding values from their respective package inserts (DAP [Cubicin®]; LZD [Zyvox®]; VAN [Vancocin®]; Table 3).
# [2] = system: ABSSSI caused by susceptible gram-positive bacteria, including MRSA; test: SOLO II Phase 3 trial, efficacy; assay type: in vivo, human; settings: for FDA primary endpoint: Cessation of spread, absence of fever, no rescue antibiotics / ≧20% reduction of lesion area / FDA primary endpoint: Cessation of spread, absence of fever, no rescue antibiotics, number of patients / ≧20% reduction of lesion area, number of patients: ECE; for EMA primary endpoint: Investigator-assessed clinical cure / EMA primary endpoint: Investigator-assessed clinical cure, number of patients: PTE
# Excerpt: (§1) Complete results were obtained from a phase 3 clinical trial program of oritavancin (SOLO), which investigated the drug for the treatment of acute bacterial skin and skin structure infections (ABSSSI) caused by susceptible gram-positive bacteria, including methicillin-resistant Staphylococcus aureus (MRSA). SOLO I and SOLO II clinical trials were identical multicenter, double-blind, randomized clinical trials.
# In SOLO II, all protocol-specified primary and secondary efficacy endpoints were met. […] The efficacy was similar in the overall population and in those patients with microbiologically confirmed MRSA infections.
# [3] = system: ABSSSI caused by susceptible gram-positive bacteria, including MRSA; test: SOLO I and SOLO II combined, efficacy; assay type: in vivo, human; settings: SOLO I and SOLO II combined; for FDA primary endpoint: Cessation of spread, absence of fever, no rescue antibiotics / ≧20% reduction of lesion area / FDA primary endpoint: Cessation of spread, absence of fever, no rescue antibiotics, number of patients / ≧20% reduction of lesion area, number of patients: ECE; for EMA primary endpoint: Investigator-assessed clinical cure / EMA primary endpoint: Investigator-assessed clinical cure, number of patients: PTE
# Excerpt: as §1
# In microbiologically confirmed MRSA patients, efficacy was similar in both treatment groups; however, a higher proportion of MRSA-infected patients in the oritavancin group achieved the endpoint of greater than or equal to 20% reduction of lesion area at ECE (p value=0.032). Under the Special Protocol Assessment (SPA) agreed with the FDA, the protocols pre-specified that MRSA patients from the SOLO studies would be pooled for the evaluation of efficacy.
# The combined SOLO studies represented 1,987 patients in an intent-to-treat population for evaluation of oritavancin in the treatment of ABSSSI in controlled clinical trials and assessed one of the largest subsets of patients with documented MRSA infection (405 patients).
# [4] = SOLO I and SOLO II combined, safety; assay type: in vivo, human
# [5] = Predicted free peak and free trough levels in plasma; assay type: in vivo; settings: non-protein bound drug, representative human dose: oritavancin 1200 mg, vancomycin 1000 mg, daptomycin 4 mg/kg, linezolid 500 mg
# Description: ORI concentrations were chosen to approximate free peak (fCmax; defined as the peak concentration of non-protein bound drug) and free trough (fCmin; defined for ORI as the concentration of non-protein bound drug at 24 h) levels in plasma following administration of a 1200 mg dose (Belley et al., 2013 Table 10). ORI protein binding is estimated at approximately 85% in serum from nonclinical species and humans (Arhin et al., 2010). Doubling dilution concentrations of comparator agents were likewise chosen to approximate their fCmax and fCmin levels in plasma when administered at approved dosages for complicated skin and skin structure infections, using pharmacokinetic data and protein binding values from their respective package inserts (DAP [Cubicin®]; LZD [Zyvox®]; VAN [Vancocin®]; Table 3).
# [6] = protein binding values from Arhin et al., 2010 (oritavancin) and package inserts (comparators); cited from earlier work
# [7] = confirmed MRSA, Microbiological ITT
# [8] = confirmed MRSA, Microbiological ITT, oritavancin n = 100, vancomycin n = 101
# [9] = mITT, oritavancin n = 503, vancomycin n = 502
# [10] = confirmed MRSA, MicroITT, oritavancin n = 204, vancomycin n = 201
# [11] = mITT, oritavancin n = 978, vancomycin n = 981
smiles,measurement,setting,value
"CN[C@H](CC(C)C)C(=O)N[C@H]1C(=O)N[C@@H](CC(N)=O)C(=O)N[C@H]2C(=O)N[C@H]3C(=O)N[C@H](C(=O)N[C@H](C(=O)O)c4cc(O)cc(O)c4-c4cc3ccc4O)[C@H](O)c3ccc(c(Cl)c3)Oc3cc2cc(c3O[C@@H]2O[C@H](CO)[C@@H](O)[C@H](O)[C@H]2O[C@H]2C[C@](C)(N)[C@H](O)[C@H](C)O2)Oc2ccc(cc2Cl)[C@H]1O [Vancomycin, vancomycin]",Time to cidality (≧3 log decrease),"[1]; 57147 (mecC), vancomycin ƒCmax 16 mg/L",6-24 h
same,Time to cidality (≧3 log decrease),"[1]; 57147 (mecC), vancomycin ƒCmin 4 mg/L",6-24 h
same,Time to cidality (≧3 log decrease),"[1]; 70611 (mecC), vancomycin ƒCmax 16 mg/L",6-24 h
same,Time to cidality (≧3 log decrease),"[1]; 70611 (mecC), vancomycin ƒCmin 4 mg/L",6-24 h
same,Time to cidality (≧3 log decrease),"[1]; 73348 (mecC), vancomycin ƒCmax 16 mg/L",6-24 h
same,Time to cidality (≧3 log decrease),"[1]; 73348 (mecC), vancomycin ƒCmin 4 mg/L",6-24 h
same,Time to cidality (≧3 log decrease),"[1]; 73415 (mecC), vancomycin ƒCmax 16 mg/L",6-24 h
same,Time to cidality (≧3 log decrease),"[1]; 73415 (mecC), vancomycin ƒCmin 4 mg/L",6-24 h
same,Time to cidality (≧3 log decrease),"[1]; 73617 (mecC), vancomycin ƒCmax 16 mg/L",6-24 h
same,Time to cidality (≧3 log decrease),"[1]; 73617 (mecC), vancomycin ƒCmin 4 mg/L",6-24 h
same,Time to cidality (≧3 log decrease),"[1]; 73829 (mecC), vancomycin ƒCmax 16 mg/L",6-24 h
same,Time to cidality (≧3 log decrease),"[1]; 73829 (mecC), vancomycin ƒCmin 4 mg/L",6-24 h
same,Time to cidality (≧3 log decrease),"[1]; 75814 (mecC), vancomycin ƒCmax 16 mg/L",6-24 h
same,Time to cidality (≧3 log decrease),"[1]; 75814 (mecC), vancomycin ƒCmin 4 mg/L",6-24 h
same,Time to cidality (≧3 log decrease),"[1]; 76918 (mecC), vancomycin ƒCmax 16 mg/L",6-24 h
same,Time to cidality (≧3 log decrease),"[1]; 76918 (mecC), vancomycin ƒCmin 4 mg/L",6-24 h
same,Time to cidality (≧3 log decrease),"[1]; 77431 (mecC), vancomycin ƒCmax 16 mg/L",6-24 h
same,Time to cidality (≧3 log decrease),"[1]; 77431 (mecC), vancomycin ƒCmin 4 mg/L",6-24 h
same,Time to cidality (≧3 log decrease),"[1]; 77601 (mecC), vancomycin ƒCmax 16 mg/L",6-24 h
same,Time to cidality (≧3 log decrease),"[1]; 77601 (mecC), vancomycin ƒCmin 4 mg/L",6-24 h
same,Time to cidality (≧3 log decrease),"[1]; 77950 (mecC), vancomycin ƒCmax 16 mg/L",6-24 h
same,Time to cidality (≧3 log decrease),"[1]; 77950 (mecC), vancomycin ƒCmin 4 mg/L",6-24 h
same,Time to cidality (≧3 log decrease),"[1]; 77964 (mecC), vancomycin ƒCmax 16 mg/L",6-24 h
same,Time to cidality (≧3 log decrease),"[1]; 77964 (mecC), vancomycin ƒCmin 4 mg/L",6-24 h
same,Time to cidality (≧3 log decrease),"[1]; 78085 (mecC), vancomycin ƒCmax 16 mg/L",6-24 h
same,Time to cidality (≧3 log decrease),"[1]; 78085 (mecC), vancomycin ƒCmin 4 mg/L",6-24 h
same,Time to cidality (≧3 log decrease),"[1]; 78651 (mecC), vancomycin ƒCmax 16 mg/L",6-24 h
same,Time to cidality (≧3 log decrease),"[1]; 78651 (mecC), vancomycin ƒCmin 4 mg/L",6-24 h
same,Time to cidality (≧3 log decrease),"[1]; ATCC 29213 (MSSA), vancomycin ƒCmax 16 mg/L",6-24 h
same,Time to cidality (≧3 log decrease),"[1]; ATCC 29213 (MSSA), vancomycin ƒCmin 4 mg/L",6-24 h
same,Time to cidality (≧3 log decrease),"[1]; ATCC 33591 (mecA), vancomycin ƒCmax 16 mg/L",6-24 h
same,Time to cidality (≧3 log decrease),"[1]; ATCC 33591 (mecA), vancomycin ƒCmin 4 mg/L",6-24 h
same,Time to cidality (≧3 log decrease),"[1]; ATCC 43300 (mecA), vancomycin ƒCmax 16 mg/L",6-24 h
same,Time to cidality (≧3 log decrease),"[1]; ATCC 43300 (mecA), vancomycin ƒCmin 4 mg/L",6-24 h
same,Time to achieve 3 log kill,"[1]; all tested strains, both fCmin and fCmax",6 to 24 hours
same,"FDA primary endpoint: Cessation of spread, absence of fever, no rescue antibiotics",[2]; [7],81.2%
same,≧20% reduction of lesion area,[2]; [7],90.1%
same,"FDA primary endpoint: Cessation of spread, absence of fever, no rescue antibiotics, number of patients",[2]; [8],82
same,"≧20% reduction of lesion area, number of patients",[2]; [8],91
same,EMA primary endpoint: Investigator-assessed clinical cure,[2]; [7],85.1%
same,"EMA primary endpoint: Investigator-assessed clinical cure, number of patients",[2]; [8],86
same,"FDA primary endpoint: Cessation of spread, absence of fever, no rescue antibiotics",[2]; mITT,82.9%
same,≧20% reduction of lesion area,[2]; mITT,85.3%
same,"FDA primary endpoint: Cessation of spread, absence of fever, no rescue antibiotics, number of patients",[2]; [9],416
same,"≧20% reduction of lesion area, number of patients",[2]; [9],428
same,EMA primary endpoint: Investigator-assessed clinical cure,[2]; mITT,80.5%
same,"EMA primary endpoint: Investigator-assessed clinical cure, number of patients",[2]; [9],404
same,"FDA primary endpoint: Cessation of spread, absence of fever, no rescue antibiotics","[3]; confirmed MRSA, MicroITT",80.6%
same,≧20% reduction of lesion area,"[3]; confirmed MRSA, MicroITT",87.1%
same,"FDA primary endpoint: Cessation of spread, absence of fever, no rescue antibiotics, number of patients",[3]; [10],162
same,"≧20% reduction of lesion area, number of patients",[3]; [10],175
same,EMA primary endpoint: Investigator-assessed clinical cure,"[3]; confirmed MRSA, MicroITT",84.1%
same,"EMA primary endpoint: Investigator-assessed clinical cure, number of patients",[3]; [10],169
same,"FDA primary endpoint: Cessation of spread, absence of fever, no rescue antibiotics",[3]; mITT,80.9%
same,≧20% reduction of lesion area,[3]; mITT,84.1%
same,"FDA primary endpoint: Cessation of spread, absence of fever, no rescue antibiotics, number of patients",[3]; [11],794
same,"≧20% reduction of lesion area, number of patients",[3]; [11],825
same,EMA primary endpoint: Investigator-assessed clinical cure,[3]; mITT,80.2%
same,"EMA primary endpoint: Investigator-assessed clinical cure, number of patients",[3]; [11],787
same,Patients with adverse events leading to study drug discontinuation,[4],4.2%
same,Treatment emergent adverse events considered by investigators as related to study drug,[4]; p=0.002,28.4%
same,Patients reported to experience at least one adverse event,[4]; safety population,56.9%
same,Doubling Dilution Concentration Representing Predicted fCmax,[5],16 mg/L
same,Free Fraction,[6],0.54
